Assay results published in PubChem BioAssay (NCI).
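Compound exposure: 48 hours, 5 concentrations, 96-well plates. TGI: total growth inhibition.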

Assays:
Assay in all cases: inhibition of tumour cell growth, NCI panel, 48 h
786-0 renal = system: 786-0 renal
A498 renal = system: A498 renal
A549 NSCLC = system: A549 NSCLC
ACHN renal = system: ACHN renal
CAKI-1 renal = system: CAKI-1 renal
CCRF-CEM leukemia = system: CCRF-CEM leukemia
COLO 205 colon = system: COLO 205 colon
DLD-1 colon = system: DLD-1 colon
DMS 114 small cell lung = system: DMS 114 small cell lung
DMS 273 small cell lung = system: DMS 273 small cell lung
EKVX NSCLC = system: EKVX NSCLC
HCC-2998 colon = system: HCC-2998 colon
HCT-116 colon = system: HCT-116 colon
HCT-15 colon = system: HCT-15 colon
HL-60(TB) leukemia = system: HL-60(TB) leukemia
HOP-18 NSCLC = system: HOP-18 NSCLC
HOP-62 NSCLC = system: HOP-62 NSCLC
HOP-92 NSCLC = system: HOP-92 NSCLC
HT29 colon = system: HT29 colon
IGROV1 ovarian = system: IGROV1 ovarian
K-562 leukemia = system: K-562 leukemia
KM12 colon = system: KM12 colon
KM20L2 colon = system: KM20L2 colon
LOX IMVI melanoma = system: LOX IMVI melanoma
LXFL 529 NSCLC = system: LXFL 529 NSCLC
M14 melanoma = system: M14 melanoma
M19-MEL melanoma = system: M19-MEL melanoma
MALME-3M melanoma = system: MALME-3M melanoma
MOLT-4 leukemia = system: MOLT-4 leukemia
NCI-H226 lung = system: NCI-H226 lung
NCI-H23 lung = system: NCI-H23 lung
NCI-H460 lung = system: NCI-H460 lung
NCI-H522 lung = system: NCI-H522 lung
OVCAR-3 ovarian = system: OVCAR-3 ovarian
OVCAR-4 ovarian = system: OVCAR-4 ovarian
OVCAR-5 ovarian = system: OVCAR-5 ovarian
OVCAR-8 ovarian = system: OVCAR-8 ovarian
RPMI-8226 leukemia = system: RPMI-8226 leukemia
RXF 393 renal = system: RXF 393 renal
SF-268 CNS = system: SF-268 CNS
SF-295 CNS = system: SF-295 CNS
SF-539 CNS = system: SF-539 CNS
SK-MEL-2 melanoma = system: SK-MEL-2 melanoma
SK-MEL-5 melanoma = system: SK-MEL-5 melanoma
SK-OV-3 ovarian = system: SK-OV-3 ovarian
SN12C renal = system: SN12C renal
SNB-19 CNS = system: SNB-19 CNS
SNB-75 CNS = system: SNB-75 CNS
SNB-78 CNS = system: SNB-78 CNS
SR leukemia = system: SR leukemia
SW-620 colon = system: SW-620 colon
TK-10 renal = system: TK-10 renal
U251 CNS = system: U251 CNS
UACC-257 melanoma = system: UACC-257 melanoma
UACC-62 melanoma = system: UACC-62 melanoma
UO-31 renal = system: UO-31 renal
XF 498 CNS = system: XF 498 CNS

Measured: TGI

CC(C)(C)OC(=O)C1=C(O)C(C(=O)OC(C)(C)C)C23CCCCC12C(C(=O)OC(C)(C)C)C(O)=C3C(=O)OC(C)(C)C (configuration not stated)
> 100 µM: 786-0 renal | A498 renal | A549 NSCLC | ACHN renal | CAKI-1 renal | CCRF-CEM leukemia | COLO 205 colon | DLD-1 colon | DMS 114 small cell lung | DMS 273 small cell lung | EKVX NSCLC | HCC-2998 colon | HCT-116 colon | HCT-15 colon | HL-60(TB) leukemia | HOP-18 NSCLC | HOP-62 NSCLC | HOP-92 NSCLC | HT29 colon | IGROV1 ovarian | K-562 leukemia | KM12 colon | KM20L2 colon | LOX IMVI melanoma | LXFL 529 NSCLC | M14 melanoma | M19-MEL melanoma | MALME-3M melanoma | MOLT-4 leukemia | NCI-H226 lung | NCI-H23 lung | NCI-H460 lung | NCI-H522 lung | OVCAR-3 ovarian | OVCAR-4 ovarian | OVCAR-5 ovarian | OVCAR-8 ovarian | RPMI-8226 leukemia | RXF 393 renal | SF-268 CNS | SF-295 CNS | SF-539 CNS | SK-MEL-2 melanoma | SK-MEL-5 melanoma | SK-OV-3 ovarian | SN12C renal | SNB-19 CNS | SNB-75 CNS | SNB-78 CNS | SR leukemia | SW-620 colon | TK-10 renal | U251 CNS | UACC-257 melanoma | UACC-62 melanoma | UO-31 renal | XF 498 CNS
